How the values were obtained:
[1] = Reduced coenzyme Q10 ratio in plasma after oral administration, 62-week-old SD rats (Example 2); assay type: in vivo
Text: (§1) The ratio of the reduced form to the total coenzyme Q10 is generally determined by a method comprising quantifying oxidized coenzyme Q10 and reduced coenzyme Q10 in a sample by high performance liquid chromatography (HPLC) using an UV detector and calculating the ratio from the volume ratio obtained, or a method comprising using an HPLC system incorporated with an electrochemical detector for calculating the ratio of oxidized coenzyme Q10 and reduced coenzyme Q10 from the peak area. The HPLC system incorporated with an electrochemical detector makes it possible to specifically determine oxidation-reduction substances and has high sensitivity, and thus is highly useful for determining trace amount of reduced coenzyme Q10 in the living body or samples. In the present invention, all the reduced coenzyme Q10 ratios are determined by the HPLC system incorporated with an electrochemical detector.
(§2) In these Examples, the ratio of reduced coenzyme Q10 to the total coenzyme Q10 was determined using the HPLC system incorporated with an electrochemical detector (product of Shiseido Co., Ltd.) and a reduction column (product of Shiseido Co., Ltd.).
(§3) 10 SD rats (62-week-old, males) were divided into 2 groups each consisted of 5 rats so that each group had the same average body weight value. To one group, a solution of reduced coenzyme Q10in soybean oil (containing about 1% of oxidized coenzyme Q10) was orally administered, and to the other group, a solution of oxidized coenzyme Q10 in soybean oil was orally administered, each at the dose of 100 mg/kg body weight in coenzyme Q10 equivalent. Then, the reduced coenzyme Q10 ratio in plasma was determined with time lapses. Blood was collected after 1, 2, 4 and 8 hours of oral administration, and centrifuged to obtain plasma. The concentration of reduced coenzyme Q10 and oxidized coenzyme Q10 in the obtained plasma was quantified using HPLC in order to determine the ratio of the reduced form.

[2] = healthy person, intake of oxidized coenzyme Q10; cited from earlier work
[3] = Reduced coenzyme Q10 ratio in plasma after oral administration, 54-week-old SD rats (Example 1); assay type: in vivo
Text: as §1, §2
as §3, with “(54-week-old,” for “(62-week-old,”, “Q10 in” for “Q10in”

[4] = Reduced coenzyme Q10 ratio in plasma after oral administration, 5-week-old SD rats (Reference Example 1); assay type: in vivo
Text: as §1, with “The HPLC system incorporated with an electrochemical detector makes it possible to specifically determine oxidation-reduction substances and has high sensitivity, and thus is highly useful for determining trace amount of reduced coenzyme Q10 in the living body or samples.” left out
as §2
10 SD rats (5-week-old, males) were divided into 2 groups each consisted of 5 rats so that each group had the same average body weight value. […] Then, the reduced coenzyme Q10 ratio in plasma was determined with time lapses. […] The concentration of reduced coenzyme Q10 and oxidized coenzyme Q10 in the obtained plasma was quantified using HPLC in order to determine the reduced coenzyme Q10 ratio.

[5] = Reduced coenzyme Q10 ratio in plasma of healthy aged people fed soft capsules (Example 3); assay type: in vivo, human; conditions: healthy aged people 64 to 77 years old, two soft capsules (100 mg of coenzyme Q10), since 2 hours after administration
Text: as §1, with “The HPLC system incorporated with an electrochemical detector makes it possible to specifically determine oxidation-reduction substances and has high sensitivity, and thus is highly useful for determining trace amount of reduced coenzyme Q10 in the living body or samples.” left out
as §2
Two soft capsules obtained in Preparation Example 5 and Comparative Preparation Example 1 (containing 100 mg of coenzyme Q10) were fed to two groups of healthy aged people (20 male and female individuals in each group, age: 64 to 77 years old), and the effect on the reduced coenzyme Q10 ratio in plasma was evaluated.

[6] = male, SD, rat, in vivo, po, 100 mg/kg, 1 h
[7] = male, SD, rat, in vivo, po, 100 mg/kg, 8 h

Row | ratio of the reduced form of coenzyme Q10 in plasma [1, 6] | ratio of the reduced form of coenzyme Q10 in plasma [1, 7] | ratio of the reduced form of coenzyme Q10 in plasma [3, 6] | ratio of the reduced form of coenzyme Q10 in plasma [3, 7] | difference in the reduced coenzyme Q10 ratio in plasma between administration of reduced and oxidized coenzyme Q10 ([4]; rat, in vivo, po, 100 mg/kg) | ratio of the reduced form of coenzyme Q10 in plasma ([1]; 62-week-old male SD rats, 100 mg/kg oral in soybean oil, over 1-8 hours) | ratio of the reduced form of coenzyme Q10 in plasma ([3]; 54-week-old male SD rats, 100 mg/kg oral in soybean oil, over 1-8 hours) | difference in the reduced coenzyme Q10 ratio in plasma between administration of reduced and oxidized coenzyme Q10 ([4]; 5-week-old male SD rats, 100 mg/kg oral in soybean oil, after 2 hours or later of administration) | ratio of reduced coenzyme Q10 to the total coenzyme Q10 in plasma, time course [5] | SMILES | amount of reduced coenzyme Q10 in plasma [2] | ratio of reduced coenzyme Q10 to oxidized coenzyme Q10 in plasma [2]
1 | about 74% | about 78% | about 76% | about 87% | almost no difference | – | – | – | – | COC1=C(OC)C(=O)C(C/C=C(\C)CCC=C(C)CCC=C(C)CCC=C(C)CCC=C(C)CCC=C(C)CCC=C(C)CCC=C(C)CCC=C(C)CCC=C(C)C)=C(C)C1=O [oxidized coenzyme Q10] | increased | unchanged
2 | – | – | – | – | – | around 90% | around 90% | almost no difference | increased with the lapse of time | COc1c(O)c(C)c(C/C=C(\C)CC/C=C(\C)CC/C=C(\C)CC/C=C(\C)CC/C=C(\C)CC/C=C(\C)CC/C=C(\C)CC/C=C(\C)CC/C=C(\C)CCC=C(C)C)c(O)c1OC [reduced coenzyme Q10] | – | –

— US20080254016A1, “Composition For Increasing Anti-Oxidation Activity In Blood” (Kaneka Corporation, priority 2005, published 2008)
